In ChEMBL document CHEMBL1201862, “PubChem BioAssay data set” (2004):
Active and inactive are the calls of the source.

How the values were obtained:
[1] = target: Genome polyprotein (dengue virus type 2, UniProt P29990); assay: flavivirus cap methylation enzyme inhibition – biochemical, confirmation dose response, primary screen (AID 588689); assay type: functional
[2] = system: Vero; assay: viability of Vero cells under compound – cytotoxicity control for flavivirus capping enzyme inhibitors (AID 588742); assay type: functional; details: Chlorocebus sabaeus
[3] = target: T1, Replicative DNA helicase DnaB (Mycobacterium tuberculosis, UniProt P9WMR3); assay: DnaB intein splicing inhibitors, dose response, biochemical, cell-free fluorescence (AID 449749); assay type: functional
T1 sequence (P9WMR3 whole entry): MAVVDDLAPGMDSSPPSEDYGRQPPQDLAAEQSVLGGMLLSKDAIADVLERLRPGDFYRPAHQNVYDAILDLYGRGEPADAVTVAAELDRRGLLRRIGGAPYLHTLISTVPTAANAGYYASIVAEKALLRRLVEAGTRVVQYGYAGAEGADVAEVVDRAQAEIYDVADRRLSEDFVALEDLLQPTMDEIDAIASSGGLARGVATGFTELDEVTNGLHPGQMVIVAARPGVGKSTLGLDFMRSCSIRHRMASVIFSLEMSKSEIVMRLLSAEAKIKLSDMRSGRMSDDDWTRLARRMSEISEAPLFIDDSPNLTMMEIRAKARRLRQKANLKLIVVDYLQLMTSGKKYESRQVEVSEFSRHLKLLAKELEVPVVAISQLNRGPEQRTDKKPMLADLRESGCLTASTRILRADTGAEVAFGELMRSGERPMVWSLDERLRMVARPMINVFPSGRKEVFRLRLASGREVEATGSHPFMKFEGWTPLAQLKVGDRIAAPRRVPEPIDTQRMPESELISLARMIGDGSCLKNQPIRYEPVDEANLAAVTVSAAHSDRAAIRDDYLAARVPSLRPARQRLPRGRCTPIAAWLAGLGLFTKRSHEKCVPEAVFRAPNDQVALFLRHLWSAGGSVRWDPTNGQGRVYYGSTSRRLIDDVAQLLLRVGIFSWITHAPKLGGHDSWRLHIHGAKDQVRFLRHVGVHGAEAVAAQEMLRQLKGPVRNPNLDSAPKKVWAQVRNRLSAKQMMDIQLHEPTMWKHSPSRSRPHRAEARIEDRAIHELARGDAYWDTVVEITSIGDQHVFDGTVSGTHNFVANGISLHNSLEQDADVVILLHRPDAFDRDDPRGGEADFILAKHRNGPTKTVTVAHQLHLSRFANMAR

[4] = target: Potassium voltage-gated channel subfamily KQT member 2 (Rattus norvegicus, UniProt O88943, W236L); assay: potentiation of rat KCNQ2 current – cell-based, automated electrophysiology, mechanism study for KCNQ2 potentiator project, dose response (AID 2603); assay type: functional
Chain of Potassium voltage-gated channel subfamily KQT member 2 (O88943 whole entry W236L, the tested form may be a part): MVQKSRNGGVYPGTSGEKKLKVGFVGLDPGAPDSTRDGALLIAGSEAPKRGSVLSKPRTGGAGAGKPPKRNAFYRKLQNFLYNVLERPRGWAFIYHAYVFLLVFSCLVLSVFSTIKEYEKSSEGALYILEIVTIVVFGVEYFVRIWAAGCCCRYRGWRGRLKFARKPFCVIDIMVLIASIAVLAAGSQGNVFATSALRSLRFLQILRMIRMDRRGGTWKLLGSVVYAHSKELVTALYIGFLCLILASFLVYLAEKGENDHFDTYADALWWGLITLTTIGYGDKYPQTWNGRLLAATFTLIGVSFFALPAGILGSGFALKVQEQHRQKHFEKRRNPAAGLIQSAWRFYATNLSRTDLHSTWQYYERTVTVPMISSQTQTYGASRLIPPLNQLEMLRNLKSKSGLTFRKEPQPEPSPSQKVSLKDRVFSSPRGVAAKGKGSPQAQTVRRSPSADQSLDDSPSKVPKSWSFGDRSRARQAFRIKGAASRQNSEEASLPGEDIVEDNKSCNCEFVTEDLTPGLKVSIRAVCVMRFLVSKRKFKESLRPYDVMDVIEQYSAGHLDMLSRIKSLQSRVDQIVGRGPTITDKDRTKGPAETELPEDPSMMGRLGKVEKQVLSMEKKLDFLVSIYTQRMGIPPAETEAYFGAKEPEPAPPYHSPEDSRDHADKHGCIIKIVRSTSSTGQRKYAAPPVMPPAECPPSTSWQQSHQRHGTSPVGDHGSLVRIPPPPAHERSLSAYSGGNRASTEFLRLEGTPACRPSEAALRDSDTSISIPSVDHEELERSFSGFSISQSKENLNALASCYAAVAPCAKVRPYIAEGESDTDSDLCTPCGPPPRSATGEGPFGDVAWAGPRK

[5] = target: Hepatocyte nuclear factor 4-alpha (Homo sapiens, UniProt P41235); assay type: functional, cell-based;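 further: biochemical luminescence-based dose-response counterscreen measuring inhibition of HNF4 dimerization, run alongside a screen for blockers of ABHD5–perilipin-5 interaction; split luciferase complementation of HNF4 fusion proteins in cell lysate measuring dimerization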
Chain of Hepatocyte nuclear factor 4-alpha (P41235 whole entry, the tested form may be a part): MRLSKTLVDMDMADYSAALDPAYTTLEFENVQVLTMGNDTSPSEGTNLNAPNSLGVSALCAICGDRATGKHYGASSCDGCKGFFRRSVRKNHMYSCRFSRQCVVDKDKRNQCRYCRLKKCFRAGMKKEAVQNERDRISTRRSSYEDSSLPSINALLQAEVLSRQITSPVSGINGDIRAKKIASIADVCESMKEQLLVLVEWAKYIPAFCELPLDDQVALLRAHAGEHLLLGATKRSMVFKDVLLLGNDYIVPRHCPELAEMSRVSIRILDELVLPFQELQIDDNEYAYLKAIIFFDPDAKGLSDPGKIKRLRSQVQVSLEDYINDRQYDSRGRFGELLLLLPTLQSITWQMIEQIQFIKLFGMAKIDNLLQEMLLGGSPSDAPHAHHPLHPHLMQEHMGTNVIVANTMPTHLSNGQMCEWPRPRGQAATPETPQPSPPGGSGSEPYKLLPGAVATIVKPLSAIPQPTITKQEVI

[6] = target: T2, Protein RecA (Mycobacterium tuberculosis, UniProt P9WHJ3); assay: Fluorescence Cell-Free Homogeneous Dose Retest to Identify Inhibitors of RecA-Intein Splicing Activity. [Related pubchem assays (depositor defined):AID2097, AID2223, AID489010, AID492950]; assay type: functional
T2 sequence (P9WHJ3 whole entry): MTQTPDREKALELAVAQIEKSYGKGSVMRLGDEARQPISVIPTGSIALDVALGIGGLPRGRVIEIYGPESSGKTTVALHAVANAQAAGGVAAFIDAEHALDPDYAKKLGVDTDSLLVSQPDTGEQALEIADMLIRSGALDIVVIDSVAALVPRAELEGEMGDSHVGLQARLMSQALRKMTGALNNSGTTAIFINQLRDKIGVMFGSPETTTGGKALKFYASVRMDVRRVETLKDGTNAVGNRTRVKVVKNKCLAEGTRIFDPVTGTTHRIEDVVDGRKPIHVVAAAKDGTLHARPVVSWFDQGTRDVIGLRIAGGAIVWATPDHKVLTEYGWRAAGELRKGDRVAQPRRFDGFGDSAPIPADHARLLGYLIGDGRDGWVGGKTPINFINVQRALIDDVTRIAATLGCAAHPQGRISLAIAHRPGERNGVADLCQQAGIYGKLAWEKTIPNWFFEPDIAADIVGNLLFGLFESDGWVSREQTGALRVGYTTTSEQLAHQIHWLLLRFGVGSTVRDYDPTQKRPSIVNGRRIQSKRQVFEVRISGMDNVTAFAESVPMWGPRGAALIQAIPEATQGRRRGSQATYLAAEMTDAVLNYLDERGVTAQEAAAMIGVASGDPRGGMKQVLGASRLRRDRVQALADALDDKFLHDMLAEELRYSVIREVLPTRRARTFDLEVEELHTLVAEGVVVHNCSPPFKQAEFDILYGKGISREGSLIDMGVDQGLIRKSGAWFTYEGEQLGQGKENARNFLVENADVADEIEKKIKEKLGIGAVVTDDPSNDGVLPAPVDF

[7] = reduction of Shn3 3'UTR-driven luciferase in osteoblasts – cell-based, Clone20 osteoblasts, firefly luciferase, cherry-picked, dose response (AID 624132); assay type: functional;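 further: firefly luciferase luminescence from reporter carrying the Shn3 3'UTR in osteoblasts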
[8] = Luminescence Cell-Based Dose Retest to Confirm Inhibitors of Cancer Stem Cells. [Related pubchem assays (depositor defined):AID2717, AID2721]; assay type: functional; details: Homo sapiens
[9] = non-specific 3'UTR reporter inhibition in Clone20-Shn3RL – cell-based, Renilla luciferase, cherry-picked, counter-screen for Shn3 inhibitor project, dose response (AID 624133); assay type: functional
[10] = Intein inhibitors as potential Tuberculosis drugs, a cytotoxicity screen. [Related pubchem assays (depositor defined):AID2221, AID2223, AID434968, AID435010, AID449749, AID449750, AID489010]; assay type: functional
[11] = target: Bcl-2-like protein 10 (Homo sapiens, UniProt Q9HD36); assay: Concentration-response of Bcl-B inhibitors by biochemical FP with TR3 (AID 1243); assay type: functional
Chain of Bcl-2-like protein 10 (Q9HD36 whole entry): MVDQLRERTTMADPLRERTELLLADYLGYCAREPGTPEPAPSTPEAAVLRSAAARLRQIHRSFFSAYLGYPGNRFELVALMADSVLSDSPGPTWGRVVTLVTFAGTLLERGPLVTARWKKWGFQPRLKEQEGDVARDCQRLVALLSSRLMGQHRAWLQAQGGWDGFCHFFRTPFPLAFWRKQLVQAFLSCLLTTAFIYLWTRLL

[12] = target: T3, Mannose-6-phosphate isomerase (Homo sapiens, UniProt P34949); assay: MPI enzyme activity inhibition – biochemical, fluorescence intensity, coupled assay, primary screen (AID 1209)
T3 sequence (P34949 whole entry): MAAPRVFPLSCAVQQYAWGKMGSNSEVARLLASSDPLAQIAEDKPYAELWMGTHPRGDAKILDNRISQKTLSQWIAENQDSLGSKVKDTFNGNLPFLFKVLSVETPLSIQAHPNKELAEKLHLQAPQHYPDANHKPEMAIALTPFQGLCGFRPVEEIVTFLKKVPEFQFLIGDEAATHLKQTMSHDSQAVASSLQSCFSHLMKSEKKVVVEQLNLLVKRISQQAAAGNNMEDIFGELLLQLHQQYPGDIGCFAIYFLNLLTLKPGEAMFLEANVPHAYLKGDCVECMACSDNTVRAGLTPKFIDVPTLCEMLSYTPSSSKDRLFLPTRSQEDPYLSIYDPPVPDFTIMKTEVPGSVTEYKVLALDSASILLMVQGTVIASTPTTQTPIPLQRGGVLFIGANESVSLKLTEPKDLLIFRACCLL

[13] = target: T4, Corticotropin-releasing factor receptor 2/Corticotropin-releasing factor-binding protein (Homo sapiens, UniProt P24387+Q13324); assay: Dose Response confirmation of uHTS hits for small molecule antagonists of the CRF-binding protein and CRF-R2 receptor complex.; assay type: functional; details: read-out: IC50_Mean
T4 sequence (Q13324 whole entry): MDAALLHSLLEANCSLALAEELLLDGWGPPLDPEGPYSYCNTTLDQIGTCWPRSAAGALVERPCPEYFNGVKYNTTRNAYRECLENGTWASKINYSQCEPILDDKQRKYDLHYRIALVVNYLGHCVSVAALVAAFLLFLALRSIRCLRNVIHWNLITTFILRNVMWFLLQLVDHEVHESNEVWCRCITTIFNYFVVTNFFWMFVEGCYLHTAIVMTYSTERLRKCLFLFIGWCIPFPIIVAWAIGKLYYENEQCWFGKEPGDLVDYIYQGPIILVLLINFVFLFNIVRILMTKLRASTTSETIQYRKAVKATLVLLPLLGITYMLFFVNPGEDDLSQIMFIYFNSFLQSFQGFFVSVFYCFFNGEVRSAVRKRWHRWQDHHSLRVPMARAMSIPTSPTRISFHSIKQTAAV
T4 sequence (P24387 whole entry): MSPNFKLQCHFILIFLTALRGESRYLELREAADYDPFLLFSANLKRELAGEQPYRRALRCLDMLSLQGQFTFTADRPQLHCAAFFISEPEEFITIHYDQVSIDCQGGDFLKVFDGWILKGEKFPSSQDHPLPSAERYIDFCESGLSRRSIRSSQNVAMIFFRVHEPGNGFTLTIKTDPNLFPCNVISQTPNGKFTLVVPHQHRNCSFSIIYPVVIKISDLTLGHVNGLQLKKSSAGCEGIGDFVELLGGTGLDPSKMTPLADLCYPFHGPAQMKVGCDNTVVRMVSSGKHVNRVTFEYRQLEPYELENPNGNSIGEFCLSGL

[14] = target: T4, Corticotropin-releasing factor receptor 2/Corticotropin-releasing factor-binding protein; assay: activators of CRF receptor 2 with binding protein – uHTS hits, confirmation (AID 602473); assay type: functional; details: read-out: EC50_Mean
[15] = target: T5, Estrogen receptor (Homo sapiens, UniProt P03372); assay: ERα coactivator recruitment enhancers – biochemical, TR-FRET, ERα LBD, dose response (AID 737)
T5 sequence (P03372 whole entry): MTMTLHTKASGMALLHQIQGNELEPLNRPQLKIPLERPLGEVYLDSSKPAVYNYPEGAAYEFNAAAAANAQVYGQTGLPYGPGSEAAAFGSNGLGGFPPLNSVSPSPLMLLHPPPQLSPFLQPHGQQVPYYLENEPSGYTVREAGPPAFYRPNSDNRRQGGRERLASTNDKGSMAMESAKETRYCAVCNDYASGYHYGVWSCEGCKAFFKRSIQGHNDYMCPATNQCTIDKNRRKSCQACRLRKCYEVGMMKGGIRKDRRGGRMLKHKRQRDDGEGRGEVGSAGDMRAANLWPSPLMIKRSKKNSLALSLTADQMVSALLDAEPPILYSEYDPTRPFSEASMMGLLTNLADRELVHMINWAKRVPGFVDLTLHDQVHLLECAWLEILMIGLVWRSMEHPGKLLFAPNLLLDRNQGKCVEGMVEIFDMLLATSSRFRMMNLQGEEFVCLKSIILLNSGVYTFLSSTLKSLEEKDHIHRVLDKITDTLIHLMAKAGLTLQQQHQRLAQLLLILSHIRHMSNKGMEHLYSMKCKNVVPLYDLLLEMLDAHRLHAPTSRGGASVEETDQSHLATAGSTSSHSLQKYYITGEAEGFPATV

[16] = target: Epstein-Barr nuclear antigen 1 (Epstein-Barr virus (strain B95-8) (HHV-4) (Human herpesvirus 4), UniProt P03211); assay: inhibition of EBV nuclear antigen 1 DNA binding – biochemical, fluorescence polarization, 1536-well, dose response (AID 2381); design: species or system human gammaherpesvirus 4;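 further: fluorescence polarization of a Cy5 DNA probe bound by EBNA-1 protein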
Chain of Epstein-Barr nuclear antigen 1 (P03211 whole entry): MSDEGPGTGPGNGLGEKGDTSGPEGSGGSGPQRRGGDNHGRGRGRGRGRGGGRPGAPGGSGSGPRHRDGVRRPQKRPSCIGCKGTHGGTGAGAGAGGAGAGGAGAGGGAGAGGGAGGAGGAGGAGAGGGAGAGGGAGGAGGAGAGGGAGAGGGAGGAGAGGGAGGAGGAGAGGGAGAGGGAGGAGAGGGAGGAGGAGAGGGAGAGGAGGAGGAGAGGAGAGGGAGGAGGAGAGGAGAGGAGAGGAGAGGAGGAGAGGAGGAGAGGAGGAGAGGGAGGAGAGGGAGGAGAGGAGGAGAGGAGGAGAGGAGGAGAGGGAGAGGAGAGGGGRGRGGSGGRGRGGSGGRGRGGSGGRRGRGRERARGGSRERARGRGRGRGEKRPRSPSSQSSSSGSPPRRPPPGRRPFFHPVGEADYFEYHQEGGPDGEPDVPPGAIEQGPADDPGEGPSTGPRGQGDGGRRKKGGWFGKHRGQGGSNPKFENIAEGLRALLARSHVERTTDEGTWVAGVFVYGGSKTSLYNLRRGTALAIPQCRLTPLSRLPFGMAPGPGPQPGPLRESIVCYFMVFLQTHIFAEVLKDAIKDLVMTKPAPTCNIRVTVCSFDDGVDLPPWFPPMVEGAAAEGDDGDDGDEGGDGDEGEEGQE

[17] = target: T6, Calpain-2 catalytic subunit (Sus scrofa, UniProt P43367); assay: m-calpain protease blockers, concentration series – biochemical, fluorogenic peptide substrate, dose response (AID 1420); assay type: functional
T6 sequence (P43367 whole entry): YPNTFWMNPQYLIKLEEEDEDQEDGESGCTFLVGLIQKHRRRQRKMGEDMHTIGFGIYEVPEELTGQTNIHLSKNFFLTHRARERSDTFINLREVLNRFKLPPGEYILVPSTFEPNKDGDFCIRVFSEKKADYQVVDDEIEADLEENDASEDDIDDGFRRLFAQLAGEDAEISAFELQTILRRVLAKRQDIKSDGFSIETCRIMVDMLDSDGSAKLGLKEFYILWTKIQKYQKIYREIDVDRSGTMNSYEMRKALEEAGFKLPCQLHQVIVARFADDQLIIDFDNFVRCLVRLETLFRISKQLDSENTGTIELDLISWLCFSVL

[18] = target: Lytic switch protein BZLF1 (Epstein-Barr virus (strain B95-8) (HHV-4) (Human herpesvirus 4), UniProt P03206); assay: inhibition of BZLF1 ZTA DNA binding – biochemical, fluorescence polarization, Epstein-Barr virus, 1536-well, counter-screen for EBNA-1 inhibitor project, dose response (AID 2377); design: species or system human gammaherpesvirus 4;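 further: fluorescence polarization of Cy5-labelled ZRE DNA probe bound by purified Zta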
Chain of Lytic switch protein BZLF1 (P03206 whole entry): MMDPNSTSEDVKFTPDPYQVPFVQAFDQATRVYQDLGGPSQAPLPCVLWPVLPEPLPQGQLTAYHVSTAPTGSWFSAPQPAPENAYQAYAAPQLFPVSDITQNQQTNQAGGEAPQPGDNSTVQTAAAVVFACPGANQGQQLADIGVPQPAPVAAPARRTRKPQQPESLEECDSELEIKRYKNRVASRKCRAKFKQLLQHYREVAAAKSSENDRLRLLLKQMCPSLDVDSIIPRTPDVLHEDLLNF

Chain of Genome polyprotein (P29990 2492-3391 limits assumed): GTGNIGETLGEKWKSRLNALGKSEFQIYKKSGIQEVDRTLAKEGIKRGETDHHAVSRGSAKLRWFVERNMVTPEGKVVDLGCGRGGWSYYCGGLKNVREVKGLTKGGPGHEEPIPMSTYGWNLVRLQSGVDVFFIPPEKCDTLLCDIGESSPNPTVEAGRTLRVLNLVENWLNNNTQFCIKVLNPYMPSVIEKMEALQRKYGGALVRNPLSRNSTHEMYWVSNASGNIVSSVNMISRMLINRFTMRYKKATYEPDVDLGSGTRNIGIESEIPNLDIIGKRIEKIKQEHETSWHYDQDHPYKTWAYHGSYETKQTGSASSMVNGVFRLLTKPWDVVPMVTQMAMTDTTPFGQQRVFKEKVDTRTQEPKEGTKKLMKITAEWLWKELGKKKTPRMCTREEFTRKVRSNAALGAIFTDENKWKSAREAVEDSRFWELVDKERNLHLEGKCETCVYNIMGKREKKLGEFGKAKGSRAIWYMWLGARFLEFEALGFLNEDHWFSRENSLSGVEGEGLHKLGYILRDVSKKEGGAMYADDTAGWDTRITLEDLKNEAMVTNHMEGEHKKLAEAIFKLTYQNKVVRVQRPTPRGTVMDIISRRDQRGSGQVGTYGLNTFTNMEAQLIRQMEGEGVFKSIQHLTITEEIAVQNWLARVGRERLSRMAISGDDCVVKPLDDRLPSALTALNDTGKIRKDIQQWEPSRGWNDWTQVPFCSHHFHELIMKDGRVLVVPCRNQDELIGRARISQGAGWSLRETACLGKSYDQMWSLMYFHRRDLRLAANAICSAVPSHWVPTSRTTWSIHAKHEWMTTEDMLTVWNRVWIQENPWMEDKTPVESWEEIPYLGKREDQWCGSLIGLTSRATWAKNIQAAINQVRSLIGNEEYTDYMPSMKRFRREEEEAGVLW

In the case of `CSc1nnc(NC(=O)c2nc(S(=O)(=O)Cc3ccccc3F)ncc2Cl)s1`, the IC50 [1] is reported as 52.3 µM (active), the CC50 [2] is reported as 27.8 µM (active) and the AC50 [3] is reported as 5 µM (active). For the same compound, the EC50 [4] was 4.19 µM (active), the IC50 [5] was 3.98 µM (active) and the EC50 [6] was 3.5 µM (active). The AC50 [7] was 1.55 µM (active), the AC50 [8] was 2.14 µM (active) and the AC50 [9] was 13 µM (active). For the same compound, the CC50 [10] was 35.4 µM (active).
In the case of `Clc1ccc(C2C=C(c3ccccc3)Nc3ncnn32)cc1` (stereo not drawn), the EC50 [11] is reported as 14.2 µM (active).
For `CCOC(=O)NC1(Nc2cccc(Cl)c2)Oc2ccccc2O1`, the IC50 [12] was > 50 µM (not active).
In the case of `COC(=O)c1ccc(CSc2nc3c(cnn3-c3ccc(F)cc3)c(=O)[nH]2)o1`, the IC50 [13] is reported as > 47.1 µM (inactive), the EC50 [14] is reported as > 53 µM (inactive) and the EC50 [15] is reported as 12.9 µM (not active).
For `CCOC(=O)c1ccc(NC(=O)C2CC(=O)Nc3nc4ccccc4n32)cc1` (stereo not drawn), the IC50 [16] was > 5.47 µM (active), the IC50 [17] was > 50 µM (not active) and the IC50 [18] was > 111 µM (not active).
